Data set [1] in a line: Aqueous solubility of compound in phosphate buffer at pH 7.4 measured after 24 hrs by UPLC analysis. The format is physicochemical.
Data set [2] is described as follows: Stability in human plasma assessed as parent compound remaining level at 5 uM remaining after 4 hrs. The conditions noted are these: read-out: Stabilty. The format is ADME, cell-free.
The nature of data set [3]: Stability in rat plasma assessed as parent compound remaining level at 5 uM remaining after 4 hrs. The format is ADME, cell-free. The conditions noted are these: read-out: Stabilty.
Data set [4] in a line: Aqueous solubility of compound in acetate buffer at pH 4.5 measured after 24 hrs by UPLC analysis. The format is physicochemical.
Data set [5] concerns the target T1, Relaxin receptor 1 (Homo sapiens) (UniProt Q9HBX9).
T1 sequence (whole entry): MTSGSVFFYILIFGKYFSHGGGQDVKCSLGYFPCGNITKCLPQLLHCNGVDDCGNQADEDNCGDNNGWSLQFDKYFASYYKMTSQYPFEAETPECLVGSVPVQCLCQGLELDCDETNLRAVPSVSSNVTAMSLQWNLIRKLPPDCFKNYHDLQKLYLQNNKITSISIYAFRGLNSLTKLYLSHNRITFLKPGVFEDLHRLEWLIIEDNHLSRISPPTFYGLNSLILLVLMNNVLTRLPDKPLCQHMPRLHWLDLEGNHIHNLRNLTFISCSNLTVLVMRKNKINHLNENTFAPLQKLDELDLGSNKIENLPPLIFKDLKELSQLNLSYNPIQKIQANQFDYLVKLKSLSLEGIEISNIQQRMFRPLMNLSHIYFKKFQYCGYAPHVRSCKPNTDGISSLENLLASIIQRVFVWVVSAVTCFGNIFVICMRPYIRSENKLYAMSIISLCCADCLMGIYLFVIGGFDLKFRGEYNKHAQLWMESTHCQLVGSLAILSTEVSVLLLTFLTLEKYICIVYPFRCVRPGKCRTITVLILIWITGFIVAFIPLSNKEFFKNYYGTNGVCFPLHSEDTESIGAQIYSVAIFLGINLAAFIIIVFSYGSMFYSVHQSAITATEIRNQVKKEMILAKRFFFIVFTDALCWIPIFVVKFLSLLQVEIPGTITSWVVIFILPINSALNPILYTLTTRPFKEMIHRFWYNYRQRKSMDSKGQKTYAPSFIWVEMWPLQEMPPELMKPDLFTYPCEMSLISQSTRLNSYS
The data set is described as follows: Agonist activity at RXFP1 endogenously expressed in human OVCAR-5 cells assessed as increase in IBMX-induced cAMP accumulation pretreated with IBMX for 40 mins followed by compound addition and measured after 30 mins by HTRF assay relative to relaxin. The format is functional, cell-based. The conditions noted are these: filed as agonist.

Data set [6] addresses T2, Relaxin receptor 1 (Homo sapiens, UniProt Q9HBX9).
T2 sequence (Q9HBX9 whole entry): T1 sequence (whole entry)
The data set is described as follows: Agonist activity at RXFP1 endogenously expressed in human OVCAR-5 cells assessed as increase in IBMX-induced cAMP accumulation pretreated with IBMX for 40 mins followed by compound addition and measured after 30 mins by HTRF assay. The format is functional, cell-based. Background: Changes in cAMP serve as a functional read-out for many G protein-coupled receptors.

≈ marks a conversion by molar mass, not a printed value. *1 amine or outer side, *2 acyl side, *3 side chain or, on linkers, in order; H or OH if unused. Where a SMILES comes first, the peptide text is derived from it. [ ]: non-standard residue; d: D form. β2hAla(2S) = C[C@@H](CN[*:1])C(=O)[*:2]; X4 = CCCC[C@H](O[*:1])C(=O)[*:2]; hLys = NCCCCC[C@H](N)C(=O)O; Orn = NCCC[C@H](N)C(=O)O

A word on the solubility: it is the concentration that dissolves in the medium under given conditions. As a reminder, the Emax is the maximal effect, on the per cent scale that the assay sets. As usually defined, the EC50 is the concentration giving half of the maximal effect. On to `CC[C@H](C)[C@H](NC[C@@H](C)CNC(=O)[C@@H](NC(=O)[C@H](CCC(N)=O)NC(=O)[C@H](C)NC(=O)[C@H](CCCNC(=N)N)NC(=O)[C@@H](NC(=O)[C@H](CCCCN)NC(=O)[C@H](CCC(=O)O)NC(=O)[C@H](CCCNC(=N)N)NC(=O)CNC(=O)[C@H](CCC(=O)O)NC(=O)[C@H](CC(C)C)NC(=O)[C@H](CCCCN)NC(=O)[C@@H](NC(=O)[C@@H](NC(C)=O)C(C)C)[C@@H](C)CC)C(C)C)[C@@H](C)CC)C(=O)N[C@@H](CCC(=O)O)C(=O)NCC(=O)N[C@@H](CCSC)C(=O)N[C@@H](CO)C(=O)N[C@@H](CCCCN)C(=O)N[C@@H](Cc1c[nH]c2ccccc12)C(=O)N[C@@H](CO)C(=O)N[C@@H](CCCCN)C(=O)N[C@@H](CCCNC(=N)N)C(=O)N[C@@H](CCCCN)C(=O)N[C@@H](CCCCN)C(N)=O`, for which the solubility at 24 h came to 3800 µg/mL (≈ 1180 µM) in data set [1] and 4800 µg/mL (≈ 1490 µM) in data set [4]. The remaining at 4 h, 5 µM in data set [2] turned out to be 79%; in data set [3] it was 29%. Moreover, the Emax in data set [5] amounted to 95%. The EC50 in data set [6] was found to be 54 nM.

Take `CC[C@H](C)[C@H](NC(=O)[C@H](CCC(N)=O)NC(=O)[C@H](C)NC(=O)[C@H](CCCNC(=N)N)NC(=O)[C@@H](NC(=O)[C@H](CCCCN)NC(=O)[C@H](CCC(=O)O)NC(=O)[C@H](CCCNC(=N)N)NC(=O)CNC(=O)[C@H](CCC(=O)O)NC(=O)[C@H](CC(C)C)NC(=O)[C@H](CCCCN)NC(=O)[C@@H](NC(=O)[C@@H](NC(=O)[C@H](CCC(=O)O)NC(=O)[C@H](CCC(=O)O)NC(C)=O)C(C)C)[C@@H](C)CC)C(C)C)C(=O)NC[C@H](C)C(=O)NC[C@H](C)C(=O)N[C@@H](CCC(=O)O)C(=O)NCC(=O)N[C@@H](CCSC)C(=O)N[C@@H](CO)C(=O)N[C@H](C(=O)N[C@@H](Cc1c[nH]c2ccccc12)C(=O)N[C@@H](CO)C(=O)NC[C@H](C)C(=O)N[C@@H](CCCNC(=N)N)C(=O)N[C@@H](CCCCN)C(=O)N[C@@H](CCCCN)C(N)=O)[C@@H](C)O` (Ac-EEVIKLEGREKVRAQI[β2hAla(2S)][β2hAla(2S)]EGMSTWS[β2hAla(2S)]RKK-NH2): the solubility at 24 h in data set [1] stood at 2400 µg/mL (≈ 709 µM); in data set [4] it was 2800 µg/mL (≈ 827 µM). The remaining at 4 h, 5 µM in data set [2] is 80%; in data set [3], 60%. Besides, in data set [5], the Emax amounted to 99%. Moreover, the half-maximal effective concentration (EC50) in data set [6] amounted to 17.8 nM.

In the case of `CCCC[C@H](OC(=O)CNC(=O)[C@H](CCC(=O)O)NC(=O)[C@@H](C)CNC(=O)[C@@H](C)CNC(=O)[C@@H](NC(=O)[C@H](CCCCCNC(C)=O)NC(=O)[C@@H](C)CNC(=O)[C@@H](C)CNC(=O)[C@H](CCCCN)NC(=O)[C@H](C)NC(=O)[C@H](CCCNC(=N)N)NC(=O)[C@@H](NC(=O)[C@H](CCCCN)NC(=O)[C@H](CCC(=O)O)NC(=O)[C@H](CCCNC(=N)N)NC(=O)CNC(=O)[C@H](CCC(=O)O)NC(=O)[C@H](CC(C)C)NC(C)=O)C(C)C)[C@@H](C)CC)C(=O)N[C@@H](CO)C(=O)N[C@H](C(=O)N[C@@H](Cc1c[nH]c2ccccc12)C(=O)N[C@@H](CO)C(=O)NC[C@H](C)C(=O)N[C@@H](CCCNC(=N)N)C(=O)N[C@@H](CCCCN)C(=O)N[C@@H](CCCN)C(=O)N[C@@H](CCCCCNC(C)=O)C(N)=O)[C@@H](C)O` (Ac-LEGREKVRAK[β2hAla(2S)][β2hAla(2S)][hLys](Ac)I[β2hAla(2S)][β2hAla(2S)]EG[X4]STWS[β2hAla(2S)]RK[Orn][hLys](Ac)-NH2), the solubility at 24 h in data set [1] and in data set [4] was 4000 µg/mL (≈ 1210 µM) throughout. Moreover, the remaining at 4 h, 5 µM in data set [2] worked out at 74%; in data set [3], 60%. The maximum response (Emax) in data set [5] amounted to 93%. In data set [6], the concentration for a half-maximal effect (EC50) worked out at 18 nM.

Take `CC[C@H](C)[C@H](NC(=O)[C@H](CCC(N)=O)NC(=O)[C@H](C)NC(=O)[C@H](CCCNC(=N)N)NC(=O)[C@@H](NC(=O)[C@H](CCCCN)NC(=O)[C@H](CCC(=O)O)NC(=O)[C@H](CCCNC(=N)N)NC(=O)CNC(=O)[C@H](CCC(=O)O)NC(=O)[C@H](CC(C)C)NC(C)=O)C(C)C)C(=O)NC[C@H](C)C(=O)NC[C@H](C)C(=O)N[C@@H](CCC(=O)O)C(=O)NCC(=O)N[C@@H](CCSC)C(=O)N[C@@H](CO)C(=O)N[C@H](C(=O)N[C@@H](Cc1c[nH]c2ccccc12)C(=O)N[C@@H](CO)C(=O)NC[C@H](C)C(=O)N[C@@H](CCCNC(=N)N)C(=O)N[C@@H](CCCCN)C(=O)N[C@@H](CCCCN)C(N)=O)[C@@H](C)O` (Ac-LEGREKVRAQI[β2hAla(2S)][β2hAla(2S)]EGMSTWS[β2hAla(2S)]RKK-NH2): the solubility at 24 h worked out at 5800 µg/mL (≈ 2080 µM) in data set [1] and 6100 µg/mL (≈ 2190 µM) in data set [4]. Also, the remaining at 4 h, 5 µM in data set [2] turned out to be 93%; in data set [3], 101%. In data set [5], the maximal effect (Emax) was 99%. The EC50 in data set [6] stood at 14 nM.

Take `CC[C@H](C)[C@H](NC(=O)[C@H](CCC(N)=O)NC(=O)[C@H](C)NC(=O)[C@H](CCCNC(=N)N)NC(=O)[C@@H](NC(=O)[C@H](CCCCN)NC(=O)[C@H](CCC(=O)O)NC(=O)[C@H](CCCNC(=N)N)NC(=O)CNC(=O)[C@H](CCC(=O)O)NC(=O)[C@H](CC(C)C)NC(=O)[C@H](CCCCN)NC(=O)[C@@H](NC(=O)[C@@H](NC(C)=O)C(C)C)[C@@H](C)CC)C(C)C)C(=O)NC[C@H](C)C(=O)NC[C@H](C)C(=O)N[C@@H](CCC(=O)O)C(=O)NCC(=O)N[C@@H](CCSC)C(=O)N[C@@H](CO)C(=O)N[C@@H](CCCCN)C(=O)N[C@@H](Cc1c[nH]c2ccccc12)C(=O)N[C@@H](CO)C(=O)N[C@@H](CCCCN)C(=O)N[C@@H](CCCNC(=N)N)C(=O)N[C@@H](CCCCN)C(=O)N[C@@H](CCCCN)C(N)=O` (HELM PEPTIDE1{[ac].V.I.K.L.E.G.R.E.K.V.R.A.Q.I.[C[C@@H](CN[*:1])C(=O)[*:2]].[C[C@@H](CN[*:1])C(=O)[*:2]].E.G.M.S.K.W.S.K.R.K.K.[am]}$$$$V2.0): the solubility at 24 h in data set [1] was 5300 µg/mL (≈ 1660 µM); in data set [4] it was 5100 µg/mL (≈ 1600 µM). The figures for the remaining at 4 h, 5 µM in data set [2] and in data set [3] were 58% and 37%, respectively. In addition, the Emax in data set [5] is 99%. For the same compound, in data set [6], the EC50 came to 17 nM.

As to `CC[C@H](C)[C@H](NC(=O)[C@H](CCC(N)=O)NC(=O)[C@H](C)NC(=O)[C@H](CCCNC(=N)N)NC(=O)[C@@H](NC(=O)[C@H](CC(C)C)NC(=O)[C@H](CCC(=O)O)NC(=O)[C@H](CCCNC(=N)N)NC(=O)CNC(=O)[C@H](CO)NC(=O)[C@H](CC(C)C)NC(=O)[C@H](CCCCN)NC(=O)[C@@H](NC(=O)[C@@H](NC(C)=O)C(C)C)[C@@H](C)CC)C(C)C)C(=O)NC[C@H](C)C(=O)N[C@H](C(=O)N[C@@H](CO)C(=O)NCC(=O)N[C@@H](CCSC)C(=O)N[C@@H](CO)C(=O)N[C@H](C(=O)N[C@@H](Cc1c[nH]c2ccccc12)C(=O)N[C@@H](CO)C(=O)N[C@@H](CCCCN)C(=O)N[C@@H](CCCNC(=N)N)C(=O)N[C@@H](CCCCN)C(=O)N[C@@H](CCCCN)C(N)=O)[C@@H](C)O)[C@@H](C)CC` (HELM PEPTIDE1{[ac].V.I.K.L.S.G.R.E.L.V.R.A.Q.I.[C[C@@H](CN[*:1])C(=O)[*:2]].I.S.G.M.S.T.W.S.K.R.K.K.[am]}$$$$V2.0), the solubility at 24 h in data set [1] is 4600 µg/mL (≈ 1480 µM); in data set [4] it was 5700 µg/mL (≈ 1840 µM). For the same compound, the results for the remaining at 4 h, 5 µM in data set [2] and in data set [3] were 54% and 37%, respectively. In data set [5], the maximal response (Emax) was 90%. Moreover, the EC50 in data set [6] was found to be 202 nM.

As for H-VIKLSGRELVRAQIAISGMSTWSKRSL-NH2, the values for the solubility at 24 h in data set [1] and in data set [4] were 14 µg/mL and 1900 µg/mL, respectively. In addition, the figures for the remaining at 4 h, 5 µM in data set [2] and in data set [3] were 3% and 2%, respectively.

The values above are taken from ChEMBL document CHEMBL4732190, “Identification of Potent and Long-Acting Single-Chain Peptide Mimetics of Human Relaxin-2 for Cardiovascular Diseases” (J Med Chem, 2021).
